Test results as given in ChEMBL document CHEMBL3525934 (Drug Metab Dispos, 2013).

Key:
Format in all cases: ADME
Conditions in all cases: 0.5 h
Cytochrome P450 2C18 = molecular target: T1, Cytochrome P450 2C18 (Homo sapiens, UniProt P33260); assay: Drug metabolism in supersomes expressing human recombinant CYP2C18 assessed as enzyme-mediated clozapine-N-oxide metabolite formation at 100 uM after 30 mins measured per nmol of P450 by HPLC analysis
T1 sequence (P33260 whole entry): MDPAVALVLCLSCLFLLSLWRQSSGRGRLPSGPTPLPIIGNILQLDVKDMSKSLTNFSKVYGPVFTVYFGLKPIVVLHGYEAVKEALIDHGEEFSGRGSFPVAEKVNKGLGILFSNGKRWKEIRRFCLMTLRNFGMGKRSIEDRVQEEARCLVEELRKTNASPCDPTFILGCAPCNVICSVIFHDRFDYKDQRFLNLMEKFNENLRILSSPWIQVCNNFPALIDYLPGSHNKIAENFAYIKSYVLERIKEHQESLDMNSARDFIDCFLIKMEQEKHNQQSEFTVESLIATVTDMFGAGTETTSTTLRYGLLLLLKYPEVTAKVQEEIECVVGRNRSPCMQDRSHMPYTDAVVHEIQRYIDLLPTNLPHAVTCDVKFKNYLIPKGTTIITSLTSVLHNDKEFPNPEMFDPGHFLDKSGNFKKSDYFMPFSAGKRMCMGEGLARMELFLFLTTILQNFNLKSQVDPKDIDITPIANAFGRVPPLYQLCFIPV

Cytochrome P450 1B1 = molecular target: T2, Cytochrome P450 1B1 (Homo sapiens, UniProt Q16678); assay: Drug metabolism in supersomes expressing human recombinant CYP1B1 assessed as enzyme-mediated cyanide adduct formation at 100 uM after 30 mins measured per nmol of P450 by HPLC analysis in presence of KCN
T2 sequence (Q16678 whole entry): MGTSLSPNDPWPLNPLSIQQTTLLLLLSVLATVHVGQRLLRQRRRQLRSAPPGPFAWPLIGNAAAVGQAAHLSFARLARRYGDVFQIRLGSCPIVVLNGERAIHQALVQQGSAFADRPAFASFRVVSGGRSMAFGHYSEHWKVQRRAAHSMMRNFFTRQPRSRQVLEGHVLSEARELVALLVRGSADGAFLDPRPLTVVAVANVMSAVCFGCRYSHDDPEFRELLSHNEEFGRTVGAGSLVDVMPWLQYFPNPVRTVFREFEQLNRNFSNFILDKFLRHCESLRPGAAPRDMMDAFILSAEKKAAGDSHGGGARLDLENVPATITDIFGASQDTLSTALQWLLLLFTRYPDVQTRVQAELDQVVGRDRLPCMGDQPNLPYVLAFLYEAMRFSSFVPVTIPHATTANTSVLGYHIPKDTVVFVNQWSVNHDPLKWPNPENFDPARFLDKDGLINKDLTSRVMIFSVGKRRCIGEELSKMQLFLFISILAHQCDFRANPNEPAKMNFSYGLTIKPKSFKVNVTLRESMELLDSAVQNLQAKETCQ

Cytochrome P450 2C19 = Cytochrome P450 2C19 (Homo sapiens, UniProt P33261); assay: Drug metabolism in supersomes expressing human recombinant CYP2C19 assessed as enzyme-mediated clozapine-N-oxide metabolite formation at 10 uM after 30 mins measured per nmol of P450 by HPLC analysis
Sequence of Cytochrome P450 2C19 (P33261 whole entry): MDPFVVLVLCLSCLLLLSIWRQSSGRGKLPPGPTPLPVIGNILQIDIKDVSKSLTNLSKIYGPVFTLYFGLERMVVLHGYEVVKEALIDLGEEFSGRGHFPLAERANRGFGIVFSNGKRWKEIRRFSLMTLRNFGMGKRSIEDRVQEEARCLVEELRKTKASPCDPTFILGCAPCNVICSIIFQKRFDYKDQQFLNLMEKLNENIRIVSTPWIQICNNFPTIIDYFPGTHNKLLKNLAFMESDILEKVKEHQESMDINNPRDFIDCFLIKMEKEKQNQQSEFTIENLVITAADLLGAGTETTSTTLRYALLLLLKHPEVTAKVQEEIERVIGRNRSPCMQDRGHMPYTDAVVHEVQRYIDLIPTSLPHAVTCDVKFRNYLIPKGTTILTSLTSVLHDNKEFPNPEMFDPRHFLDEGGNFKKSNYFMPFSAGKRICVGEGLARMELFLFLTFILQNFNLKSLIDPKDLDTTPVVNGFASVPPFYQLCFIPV

Cytochrome P450 2C8 [1] = molecular target: T3, Cytochrome P450 2C8 (Homo sapiens, UniProt P10632); assay: Drug metabolism in supersomes expressing human recombinant CYP2C8 assessed as enzyme-mediated clozapine-N-oxide metabolite formation at 10 uM after 30 mins measured per nmol of P450 by HPLC analysis
T3 sequence (P10632 whole entry): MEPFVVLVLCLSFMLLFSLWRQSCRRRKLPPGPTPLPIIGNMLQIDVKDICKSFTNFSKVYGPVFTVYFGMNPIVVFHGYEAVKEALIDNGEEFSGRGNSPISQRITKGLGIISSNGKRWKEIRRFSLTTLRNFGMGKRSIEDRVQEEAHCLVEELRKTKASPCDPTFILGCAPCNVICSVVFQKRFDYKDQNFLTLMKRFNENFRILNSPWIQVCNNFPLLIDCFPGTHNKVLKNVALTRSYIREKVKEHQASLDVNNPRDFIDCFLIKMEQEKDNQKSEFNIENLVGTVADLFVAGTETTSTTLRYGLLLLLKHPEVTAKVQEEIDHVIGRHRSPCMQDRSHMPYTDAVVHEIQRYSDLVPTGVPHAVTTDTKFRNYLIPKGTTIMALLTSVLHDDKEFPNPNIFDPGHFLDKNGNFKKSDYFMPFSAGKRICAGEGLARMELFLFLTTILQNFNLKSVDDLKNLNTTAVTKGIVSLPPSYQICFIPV

Cytochrome P450 2C8 [2] = molecular target: T3, Cytochrome P450 2C8; assay: Drug metabolism in supersomes expressing human recombinant CYP2C8 assessed as enzyme-mediated clozapine-N-oxide metabolite formation at 100 uM after 30 mins measured per nmol of P450 by HPLC analysis
Cytochrome P450 2D6 [3] = molecular target: T4, Cytochrome P450 2D6 (Homo sapiens, UniProt P10635); assay: Drug metabolism in supersomes expressing human recombinant CYP2D6 assessed as enzyme-mediated clozapine-N-oxide metabolite formation at 10 uM after 30 mins measured per nmol of P450 by HPLC analysis
T4 sequence (P10635 whole entry): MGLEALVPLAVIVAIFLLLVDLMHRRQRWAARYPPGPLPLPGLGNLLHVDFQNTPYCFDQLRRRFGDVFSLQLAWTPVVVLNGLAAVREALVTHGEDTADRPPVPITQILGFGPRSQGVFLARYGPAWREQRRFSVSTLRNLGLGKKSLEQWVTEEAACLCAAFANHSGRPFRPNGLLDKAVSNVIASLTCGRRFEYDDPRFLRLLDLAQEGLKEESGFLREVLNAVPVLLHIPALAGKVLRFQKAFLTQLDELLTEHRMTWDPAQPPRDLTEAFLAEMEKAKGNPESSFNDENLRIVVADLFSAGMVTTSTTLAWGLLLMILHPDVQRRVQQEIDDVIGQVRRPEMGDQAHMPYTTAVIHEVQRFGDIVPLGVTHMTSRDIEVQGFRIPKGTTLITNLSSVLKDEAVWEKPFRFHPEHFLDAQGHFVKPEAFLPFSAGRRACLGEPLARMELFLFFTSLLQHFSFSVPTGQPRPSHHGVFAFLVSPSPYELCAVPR

Cytochrome P450 2D6 [4] = molecular target: T4, Cytochrome P450 2D6; assay: Drug metabolism in supersomes expressing human recombinant CYP2D6 assessed as enzyme-mediated N-desmethylclozapine metabolite formation at 100 uM after 30 mins measured per nmol of P450 by HPLC analysis
Cytochrome P450 1A1 = molecular target: T5, Cytochrome P450 1A1 (Homo sapiens, UniProt P04798); assay: Drug metabolism in supersomes expressing human recombinant CYP1A1 assessed as enzyme-mediated total GSH conjugate formation at 10 uM after 30 mins measured per nmol of P450 by HPLC analysis in presence of GSH and hGST P1-1
T5 sequence (P04798 whole entry): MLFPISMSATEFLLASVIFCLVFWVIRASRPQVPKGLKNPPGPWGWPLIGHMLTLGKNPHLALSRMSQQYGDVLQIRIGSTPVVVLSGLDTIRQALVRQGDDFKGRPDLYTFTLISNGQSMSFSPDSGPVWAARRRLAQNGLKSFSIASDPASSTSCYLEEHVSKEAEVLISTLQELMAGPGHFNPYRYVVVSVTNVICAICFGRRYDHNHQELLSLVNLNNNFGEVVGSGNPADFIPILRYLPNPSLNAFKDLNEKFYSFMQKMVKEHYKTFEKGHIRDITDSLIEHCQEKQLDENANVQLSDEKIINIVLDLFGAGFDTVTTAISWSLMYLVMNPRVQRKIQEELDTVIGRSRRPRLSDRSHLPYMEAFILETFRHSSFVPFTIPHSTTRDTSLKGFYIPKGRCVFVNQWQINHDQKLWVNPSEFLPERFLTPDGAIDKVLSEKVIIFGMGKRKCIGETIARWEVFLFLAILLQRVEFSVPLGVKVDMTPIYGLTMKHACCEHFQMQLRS

Cytochrome P450 2C9 = Cytochrome P450 2C9 (Homo sapiens, UniProt P11712); assay: Drug metabolism in supersomes expressing human recombinant CYP2C9 assessed as enzyme-mediated clozapine-N-oxide metabolite formation at 100 uM after 30 mins measured per nmol of P450 by HPLC analysis
Sequence of Cytochrome P450 2C9 (P11712 whole entry): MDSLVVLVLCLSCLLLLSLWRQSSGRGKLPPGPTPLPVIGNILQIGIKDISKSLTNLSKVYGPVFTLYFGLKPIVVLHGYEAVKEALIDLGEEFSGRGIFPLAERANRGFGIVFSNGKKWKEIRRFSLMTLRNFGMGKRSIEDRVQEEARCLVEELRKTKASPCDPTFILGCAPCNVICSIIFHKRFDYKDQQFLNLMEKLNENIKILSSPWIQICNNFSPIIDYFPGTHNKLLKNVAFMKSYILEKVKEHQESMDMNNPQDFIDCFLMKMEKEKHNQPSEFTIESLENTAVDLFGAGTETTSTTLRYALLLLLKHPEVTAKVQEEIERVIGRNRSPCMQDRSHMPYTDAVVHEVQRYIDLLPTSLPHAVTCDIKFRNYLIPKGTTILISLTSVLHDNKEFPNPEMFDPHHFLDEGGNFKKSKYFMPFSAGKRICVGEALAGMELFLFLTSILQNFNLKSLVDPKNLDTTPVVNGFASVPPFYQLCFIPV

Cytochrome P450 2C8 [5] = molecular target: T3, Cytochrome P450 2C8; assay: Drug metabolism in supersomes expressing human recombinant CYP2C8 assessed as enzyme-mediated N-desmethylclozapine metabolite formation at 100 uM after 30 mins measured per nmol of P450 by HPLC analysis

## CN1CCN(C2=Nc3cc(Cl)ccc3Nc3ccccc32)CC1 [CLOZAPINE]
Cytochrome P450 2C18
  Drug metabolism: 0.065 nmol/min
Cytochrome P450 1B1
  Drug metabolism: 0.01 nmol/min
Cytochrome P450 2C19
  Drug metabolism: 0.71 nmol/min/nmol P450
Cytochrome P450 2C8 [1]
  Drug metabolism: 0.1 nmol/min
Cytochrome P450 2C8 [2]
  Drug metabolism: 0.075 nmol/min/nmol P450
Cytochrome P450 2D6 [3]
  Drug metabolism: 0.51 nmol/min
Cytochrome P450 2D6 [4]
  Drug metabolism: 23.7 nmol/min
Cytochrome P450 1A1
  Drug metabolism: 0.3 nmol/min
Cytochrome P450 2C9
  Drug metabolism: 0.057 nmol/min
Cytochrome P450 2C8 [5]
  Drug metabolism: 0.89 nmol/min
